# Experimental data published in patent US7964629B2, “Inhibitors of isoprenylcysteine carboxyl methyltransferase” (Duke Universtiy, priority 2005, dated 2011).
# Tested on: DKOB8/GFP colon cancer cells
# Test: Soft agar growth assay, DKOB8/GFP
# Format: cell-based
# Conditions: three weeks
# Method: FIGS. 4A-4C. Overexpression of Icmt rescues EGF-stimulated MAPK activation and anchorage-independent growth in cysmethynil-treated cells. FIG. 4A. Creation of cell lines stably overexpressing Icmt. DKOB8 cells were engineered to stably express either GFP alone or a GFP-Icmt fusion protein. Membrane fractions from GFP and GFP-ICMT expressing lines were assayed for Icmt activity using the BFC assay. FIG. 4B. Overexpression of Icmt restores EGF-stimulated MAPK activation in cysmethynil-treated cells. […] Where indicated, cells were treated with EGF for the final 10 min prior to harvesting. Cell lysates containing equal amounts of protein were resolved on a 13% SDS-polyacrylamide gel and probed with antiphospho-p42/44 MAPK or, as a control, antiphospho NFκB antibody as indicated. FIG. 4C. […] After 3 weeks of growth, colonies were stained with MTT and imaged. Soft agar culture media was prepared with 10% FBS in 1× minimum essential medium (MEM) alpha. […] Cells were harvested by trypsinization at ˜80% confluence, mixed into top agar (10,000 cells/plate; 0.3% noble agar in soft agar culture media) and poured onto prepared plates. […] For each condition, triplicate samples (each consisting of three plates) were prepared. […]
smiles,measurement,setting,value
"CCCCCCCCn1cc(CC(N)=O)c2cc(-c3cccc(C)c3)ccc21 [cysmethynil, 2-[5-(3-methylphenyl)-1-octyl-1H-indol-3-yl]acetamide]",ability of cells to form colonies in soft agar,20 μM,dramatically reducing the ability of cells to form colonies
same,ability to grow in soft agar,10 or 20 μM,significantly impaired
